Results on three molecules are retold here after patent publication US8183235B2, “Dihydronaphthalene compound and use thereof” (Tokyo University of Science Educational Foundation …, priority 2007, dated 2012).

Where a name gives a salt, the structure may show the parent alone. Residues, ends and D or L forms follow the SMILES beside them. *: point of attachment. Cbz = O=C(OCc1ccccc1)*

The target of assay [1] is 20S proteasome chymotrypsin-like activity (Homo sapiens, UniProt P28074). In words: Chymotrypsin-like activity inhibition test. Format: biochemical.
For a further assay, the system named is OVCAR-4. In words: Proliferation inhibition of ovarian cancer cells. The class given is cell-based. Conditions: Homo sapiens. The protocol:
(§1) As a comparison for the inhibition activity, tamoxifen citrate (TAM) was used. In the Table, the concentration units are μM.
(§2) In the same way as in Example 9, the proliferation inhibition activity of naforidaifens A to G was measured with respect to five types of ovarian cancer cells (OVCAR-3, OVCAR-4, OVCAR-5, OVCAR-8, AND SK-OV-3). In the Table, the concentration units are μM.

The subject of another assay is SK-OV-3. In words: Proliferation inhibition of ovarian cancer cells. Format: cell-based. The settings on record: Homo sapiens. The protocol:
as §1, §2

The next assay concerns OVCAR-3. In words: Proliferation inhibition of ovarian cancer cells. Format: cell-based. The settings on record: Homo sapiens. On the procedure:
as §1, §2

A further assay has as its system OVCAR-8. In words: Proliferation inhibition of ovarian cancer cells. The class given is cell-based. Conditions: Homo sapiens. On the procedure: as §1, §2
The next assay relates to OVCAR-5. In words: Proliferation inhibition of ovarian cancer cells. Format: cell-based. The settings on record: Homo sapiens. On the procedure:
as §1, §2

Another assay deals with HT-29. In words: Proliferation inhibition of colon cancer cells. Format: cell-based. The settings on record: Homo sapiens. On the procedure:
as §1
(§3) In the same way as in Example 9, the proliferation inhibition activity of naforidaifens A to G was measured with respect to five types of colon cancer cells (HCC2998, KM-12, HT-29, HCT-15, and HCT-116). In the Table, the concentration units are μM.

For the next assay, the system named is HCT-15. In words: Proliferation inhibition of colon cancer cells. Conditions: Homo sapiens. The class given is cell-based. The protocol: as §1, §3
For the next assay, the system named is HCC2998. In words: Proliferation inhibition of colon cancer cells. Format: cell-based. The settings on record: Homo sapiens, HCC 2998. On the procedure: as §1, §3
A further assay has as its system HCT-116. In words: Proliferation inhibition of colon cancer cells. The class given is cell-based. The settings on record: Homo sapiens. On the procedure: as §1, §3
The test system of a further assay is KM-12. In words: Proliferation inhibition of colon cancer cells. The settings on record: Homo sapiens, KM12. Format: cell-based. The protocol:
as §1, §3

The subject of another assay is SF-295. In words: Inhibition of propagation of central nervous system cancer cells (sulforhodamin B). The class given is cell-based. The settings on record: Homo sapiens, 48 h; SF-295, two days of cultivation.
Text: as §1

Another assay relates to U251. Described as above. The class given is cell-based. Conditions: Homo sapiens, U-251, 48 h; U251, two days of cultivation.
Text: as §1

A further assay deals with SNB-78. The assay is described as above. The class given is cell-based. Conditions: Homo sapiens, 48 h; SNB-78, two days of cultivation.
Text: as §1

Another assay deals with SF-539. Described as above. The settings on record: Homo sapiens, 48 h; SF-539, two days of cultivation. The class given is cell-based.
Text: as §1

Another assay concerns SF-268. The assay is described as above. The class given is cell-based. The settings on record: Homo sapiens, 48 h; SF-268, two days of cultivation.
Text: as §1

In the next assay the test system is SNB-75. The description is as above. Format: cell-based. Conditions: Homo sapiens, 48 h; SNB-75, two days of cultivation.
Text: as §1

A further assay concerns MKN1. In words: Proliferation inhibition of stomach cancer cells. The settings on record: Homo sapiens, MKN-1. Format: cell-based. The protocol: as §1
(§4) In the same way as in Example 9, the proliferation inhibition activity of naforidaifens A to G was measured with respect to six types of stomach cancer cells (St-4, MKN1, MKN7, MKN28, MKN45, MKN74). In the Table, the concentration units are μM.

The next assay concerns MKN45. In words: Proliferation inhibition of stomach cancer cells. Conditions: Homo sapiens, MKN-45. Format: cell-based. The protocol:
as §1, §4

Another assay deals with MKN28. In words: Proliferation inhibition of stomach cancer cells. Conditions: Homo sapiens, MKN-28. The class given is cell-based. On the procedure: as §1, §4
The next assay relates to St-4. In words: Proliferation inhibition of stomach cancer cells. Format: cell-based. Conditions: Homo sapiens. On the procedure: as §1, §4
For the next assay, the system named is MKN7. In words: Proliferation inhibition of stomach cancer cells. The class given is cell-based. Conditions: Homo sapiens, MKN-7. On the procedure:
as §1, §4

The test system of the next assay is MKN74. In words: Proliferation inhibition of stomach cancer cells. Format: cell-based. Conditions: Homo sapiens, MKN-74. On the procedure: as §1, §4

The molecule `CC(C)[C@H](O)[C@@]12NC(=O)[C@H](C)[C@@H]1OC2=O` [Clasto-Lactacystin β-Lactone, reference compound] had a half-maximal inhibitory concentration (IC50) in assay [1] of 0.039 µM. In addition, the “% Control, Chymotrypsin-like Activity” value in [1] (Concentration 10 μM) amounted to 0%.
Regarding `CC(C)C[C@@H](C=O)NC(=O)[C@H](CC(C)C)NC(=O)[C@H](CC(C)C)NC(=O)OCc1ccccc1` [MG132, reference compound] (Cbz-Leu-Leu-Leu-aldehyde), in [1] (read-out: % Control, Chymotrypsin-like Activity), the remaining activity at 10 µM came out at 0%.
Regarding `CC/C(=C(\c1ccccc1)c1ccc(OCCN(C)C)cc1)c1ccccc1` [TAM, tamoxifen citrate, reference compound], the GI50 in the assay on OVCAR-4 stood at 6.03 µM; with SK-OV-3, 20 µM; in the assay with OVCAR-3 it was 4.68 µM; in the assay with OVCAR-8, 11.2 µM; with OVCAR-5 it was 4.37 µM; with HT-29, 2.34 µM. The GI50 with HCT-15 came to 5.89 µM; with HCC2998, 2.95 µM; in the assay with HCT-116 it was 7.24 µM; in the assay with KM-12 it was 3.55 µM; with SF-295 it was 4.17 µM; with U251, 7.76 µM. In addition, the GI50 came out at 13.5 µM with SNB-78; 3.72 µM in the assay with SF-539; 12 µM in the assay on SF-268; 5.01 µM in the assay with SNB-75; 10.2 µM in the assay on MKN1; 8.32 µM in the assay on MKN45. In addition, the GI50 turned out to be 6.31 µM with MKN28, 6.31 µM in the assay on St-4, 5.25 µM in the assay on MKN7 and 3.24 µM in the assay with MKN74.
